Test results reported in patent US20070117813A1 (priority 2003, published 2007).
Where two headings read alike, the source gives them in different places.

Columns and labels:
[1] = system: Phytophthora infestans; format: in vivo; conditions: tomato plants, protective spray, assessed after 6 days
[2] = system: Plasmopara viticola; test: Activity against peronospora of grapevines caused by Plasmopara viticola; format: in vivo; conditions: grapevines cultivar Riesling
Procedure: The active compounds, separately or jointly, were prepared as a stock solution comprising 0.25% by weight of active compound in acetone or DMSO. 1% by weight of the emulsifier Uniperol® EL (wetting agent having emulsifying and dispersant action based on ethoxylated alkylphenols) was added to this solution, and the mixture was diluted with water to the desired concentration.
Use example 2—Activity against peronospora of grapevines caused by Plasmopara viticola
Leaves of potted grapevines of the cultivar “Riesling” were sprayed to runoff point with an aqueous suspension having the concentration of active compounds stated below. The next day, the undersides of the leaves were inoculated with an aqueous zoospore suspension of Plasmopara viticola. The grapevines were then initially placed in a water-vapor-saturated chamber at 24° C. for 48 hours and then in a greenhouse at temperatures between 20 and 30° C. for 5 days. After this period of time, the plants were, to promote sporangiophore eruption, again placed in a humid chamber for 16 hours. The extent of the development of the infection on the undersides of the leaves was then determined visually.
Evaluation was carried out analogously to example 1.

Row | SMILES | Efficacy in % of the untreated control ([1]; 16 ppm in the spray liquor) | Efficacy in % of the untreated control ([1]; 250 ppm in the spray liquor) | Efficacy in % of the untreated control ([2]; 1 ppm in the spray liquor) | Efficacy in % of the untreated control ([2]; 4 ppm in the spray liquor) | Efficacy in % of the untreated control ([1]; 63 ppm in the spray liquor)
1 | CC(C)(C)C(O)(CCc1ccc(Cl)cc1)Cn1cncn1 (racemic) [II, (R,S)-1-(4-chlorophenyl)-4,4-dimethyl-3-(1H-1,2,4-triazol-1-ylmethyl)pentan-3-ol] | 0% | 0% | 0% | 28% | 
2 | CC1CCN(c2c(-c3c(F)cc(F)cc3F)c(Cl)nc3ncnn23)CC1 [I, 5-chloro-7-(4-methylpiperidin-1-yl)-6-(2,4,6-trifluorophenyl)-[1,2,4]triazolo[1,5-a]pyrimidine] |  |  | 4% | 52% | 9%
3 | CC1CCN(c2c(-c3c(F)cccc3Cl)c(Cl)nc3ncnn23)CC1 [comparative A] |  |  |  |  | 0%
4 | C[C@H](Nc1c(-c2c(F)cc(F)cc2F)c(Cl)nc2ncnn12)C(F)(F)F [comparative B] |  |  |  |  | 9%
